In patent publication US8614215B2, “Quinoxaline inhibitors of phosphoinositide-3-kinases (PI3Ks)” (Merck Serono SA, priority 2007, dated 2013):

System: Human recombinant GST-PI3K
Assay: PI3K induced-lipid phosphorylation, neomycin-SPA scintillation proximity assay
Format: biochemical
Conditions: Human recombinant GST-PI3K, SPA
Excerpt: The efficacy of compounds of the invention in inhibiting the PI3K induced-lipid phosphorylation may be tested in the following binding assay. The assay combines the scintillation proximity assay technology (SPA, Amersham) with the capacity of neomycin (a polycationic antibiotic) to bind phospholipids with high affinity and specificity. The Scintillation Proximity Assay is based on the properties of weakly emitting isotopes (such as ^3H, ^125I, ^33P). Coating SPA beads with neomycin allows the detection of phosphorylated lipid substrates after incubation with recombinant PI3K and radioactive ATP in the same well, by capturing the radioactive phospholipids to the SPA beads through their specific binding to neomycin.
To a 96 wells MTP containing 10 μL of the test compound of Formula (I) (solubilized in 10% DMSO; […]), the following assay components are added: 1) 10 μL of lipid micelles 2) 20 μL of Kinase buffer ([^33P]γATP162 μM/300 nCi, MgCl2 2.5 mM, DTT 2.5 mM, Na3VO4 25 uM in Hepes 40 mM, pH 7.4) and 3) 10 μL (100 ng) of Human recombinant GST-PI3K (in Hepes 40 mM, pH 7.4, ethylenglycol 4%). After incubation at room temperature for 120 minutes, with gentle agitation, the reaction is stopped by addition of 200 μL of a solution containing 250 μg of neomycin-coated PVT SPA beads, ATP 60 mM and EDTA 6.2 mM in PBS. The assay is further incubated at room temperature for 60 minutes with gentle agitation to allow binding of phospholipids to neomycin-SPA beads. After precipitation of the neomycin-coated PVT SPA beads for 5 minutes at 1500×g, radioactive PtdIns(3)P is quantified by scintillation counting in a Wallac MicroBeta™ plate counter.
The values indicated in Table I below refer to the IC50 (μM) with respect to PI3K, i.e. the amount necessary to achieve 50% inhibition of said target. Said values show a considerable inhibitory potency of quinoxaline compounds with regard to PI3K.

Row | SMILES | IC50
1 | COc1ccc(CC2CCS(=O)(=O)CC2)c(Nc2nc3ccccc3nc2NS(=O)(=O)c2cn(C)cn2)c1 [Example 26, N-[3-({2-[(1,1-dioxidotetrahydro-2H-thiopyran-4-yl)methyl]-5-methoxyphenyl}amino)auinoxalin-2-yl]-1-methyl-1H-imidazole-4-sulfonamide] | 30 nM
2 | CCCS(=O)(=O)Nc1nc2ccccc2nc1Nc1cc(OC)ccc1CCO [Example 39, N-(3-{[2-(2-Hydroxyethyl)-5-methoxyphenyl]amino}quinoxalin-2-yl)propane-1-sulfonamide] | 44 nM
3 | COc1ccc(CN2CCOCC2)c(Nc2nc3ccccc3nc2NS(=O)(=O)c2cccnc2)c1 [Example 83, N-(3-{[5-methoxy-2-(morpholin-4-ylmethyl)phenyl]amino}quinoxalin-2-yl)pyridine-3-sulfonamide] | 72 nM
4 | COc1ccc(CCO)c(Nc2nc3ccccc3nc2NS(C)(=O)=O)c1 [Example 37, N-(3-{[2-(2-Hydroxyethyl)-5-methoxyphenyl]amino}quinoxalin-2-yl)methanesulfonamide] | 95 nM
5 | COc1ccc(S(=O)(=O)NCCO)c(Nc2nc3ccccc3nc2NS(=O)(=O)CCCS(C)(=O)=O)c1 [Example 64, N-(2-Hydroxyethyl)-4-methoxy-2-{[3-({[3-(methylsulfonyl)propyl]sulfonyl}amino)quinoxalin-2-yl]amino}benzenesulfonamide] | 300 nM
6 | COCCc1ccc(OC)cc1Nc1nc2ccccc2nc1NS(=O)(=O)c1cn(C)cn1 [Example 62, N-(3-{[5-Methoxy-2-(2-methoxyethyl)phenyl]amino}quinoxalin-2-yl)-1-methyl-1H-imidazole-4-sulfonamide] | 83 nM
7 | COc1ccc(CCO)c(Nc2nc3ccccc3nc2NS(=O)(=O)c2ccc(CCCO)cc2)c1 [Example 93, N-(3-{[2-(2Hydroxyethyl)-5-methoxyphenyl]amino}quinoxalin-2-yl)-4-(3-hydroxypropyl)benzenesulfonamide] | 36 nM
8 | COc1cc(Nc2nc3ccccc3nc2NS(=O)(=O)c2cccnc2)cc(C(=O)N2CCOCC2)c1 [Example 5, N-(3-{[3-methoxy-5-(morpholin-4-ylcarbonyl)phenyl]amino}quinoxalin-2-yl)pyridine-3-sulfonamide] | 3100 nM
9 | COc1ccc(CCS(C)(=O)=O)c(Nc2nc3ccccc3nc2NS(=O)(=O)C(C)C)c1 [Example 52, N-[3-({5-Methoxy-2-[2-(methylsulfonyl)ethyl]phenyl}amino)quinoxalin-2-yl]propane-2-sulfonamide] | 160 nM
10 | COc1ccc(CCCO)c(Nc2nc3ccccc3nc2NS(C)(=O)=O)c1 [Example 46, N-(3-{[2-(3-Hydroxypropyl)-5-methoxyphenyl]amino}quinoxalin-2-yl)methanesulfonamide] | 64 nM
11 | COc1ccc(CCCN(C)C)c(Nc2nc3ccccc3nc2NS(=O)(=O)c2cn(C)cn2)c1 [Example 31, N-[3-({2-[3-(Dimethylamino)propyl]-5-methoxyphenyl}amino)quinoxalin-2-yl]-1-methyl-1H-imidazole-4-sulfonamide] | 11 nM
12 | COc1ccc(CC2CCCCC2)c(Nc2nc3ccccc3nc2NS(=O)(=O)c2cccnc2)c1 [Example 19, N-(3-{[2-(cyclohexylmethyl)-5-methoxyphenyl]amino}quinoxalin-2-yl)pyridine-3-sulfonamide] | 490 nM
13 | COc1ccc(CCCO)c(Nc2nc3ccccc3nc2NS(=O)(=O)c2cn(C)c(CS(C)(=O)=O)n2)c1 [Example 76, N-(3-{[2-(3-Hydroxypropyl)-5-methoxyphenyl]amino}quinoxalin-2-yl)-1-methyl-2-[(methylsulfonyl)methyl]-1H-imidazole-4-sulfonamide] | 87 nM
14 | COc1ccc(CCO)c(Nc2nc3ccccc3nc2NS(=O)(=O)c2cccnc2)c1 [Example 27, N-(3-{[2-(2-hydroxyethyl)-5-methoxyphenyl]amino}quinoxalin-2-yl)pyridine-3-sulfonamide] | 40 nM
15 | COc1ccc(CC2CCN(C(C)=O)CC2)c(Nc2nc3ccccc3nc2NS(C)(=O)=O)c1 [Example 18] | 170 nM
16 | COCCNC(=O)c1cc(Nc2nc3ccccc3nc2NS(=O)(=O)c2cn(C)cn2)cc(OC)c1 [Example 80, 3-Methoxy-N-(2-methoxyethyl)-5-[(3-{[(1-methyl-1H-imidazol-4-yl)sulfonyl]amino}quinoxalin-2-yl)amino]benzamide] | 400 nM
17 | COc1ccc(CC2CCCCC2)c(Nc2nc3ccccc3nc2NS(=O)(=O)c2cn(C)cn2)c1 [Example 20, N-(3-{[2-(cyclohexylmethyl)-5-methoxyphenyl]amino}quinoxalin-2-yl)-1-methyl-1H-imidazole-4-sulfonamide] | 450 nM

Row | SMILES | IC50
18 | COc1ccc(CC2CCN(C(=O)CN(C)C)CC2)c(Nc2nc3ccccc3nc2NS(=O)(=O)c2cn(C)cn2)c1 [Example 96, N-{3-[(2-{[1-(N,N-dimethylglycyl)piperidin-4-yl]methyl}-5-methoxyphenyl)amino]quinoxalin-2-yl}-1-methyl-1H-imidazole-4-sulfonamide] | 100 nM
19 | COc1ccc(CCOC(=O)[C@@H](NC(=O)OCC2c3ccccc3-c3ccccc32)C(C)C)c(Nc2nc3ccccc3nc2NS(=O)(=O)c2cn(C)cn2)c1 [Example 103, 2-{4-Methoxy-2-[(3-{[(1-methyl-1H-imidazol-4-yl)sulfonyl]amino}quinoxalin-2-yl)amino]phenyl}ethyl N-[(9H-fluoren-9-ylmethoxy)carbonyl]-L-valinate] | 1840 nM
20 | COc1ccc(CCO)c(Nc2nc3ccccc3nc2NS(=O)(=O)c2c(C)noc2C)c1 [Example 43] | 286 nM
21 | COc1ccc(CCO)c(Nc2nc3ccccc3nc2NS(=O)(=O)c2ccc(OCCO)cc2)c1 [Example 94] | 34 nM
22 | COc1ccc(CCCO)c(Nc2nc3ccccc3nc2NS(=O)(=O)c2cccc(NC(=O)CN(C)C)c2)c1 [Example 78, 2-Dimethylamino-N-(3-{[(3-{[2-(3-hydroxypropyl)-5-methoxyphenyl]amino}quinoxalin-2-yl)]sulfamoyl}phenyl)-acetamide] | 30 nM
23 | COc1ccc(CC2CCN(S(C)(=O)=O)CC2)c(Nc2nc3ccccc3nc2NS(=O)(=O)c2cn(C)cn2)c1 [Example 97, N-{3-[(5-methoxy-2-{[1-(methylsulfonyl)piperidin-4-yl]methyl}phenyl)amino]quinoxalin-2-yl}-1-methyl-1H-imidazole-4-sulfonamide] | 160 nM
24 | COc1ccc(CO)c(Nc2nc3ccccc3nc2NS(=O)(=O)c2cn(C)cn2)c1 [Example 91, N-(3-{[2-(hydroxymethyl)-5-methoxyphenyl]amino}quinoxalin-2-yl)-1-methyl-1H-imidazole-4-sulfonamide] | 470 nM
25 | CCS(=O)(=O)Nc1nc2ccccc2nc1Nc1cc(OC)ccc1CCCO [Example 48, N-(3-{[2-(3-Hydroxypropyl)-5-methoxyphenyl]amino}quinoxalin-2-yl)ethanesulfonamide] | 59 nM
26 | COCCc1ccc(OC)cc1Nc1nc2ccccc2nc1NS(=O)(=O)C1CCN(C(C)=O)CC1 [Example 101, 1-Acetyl-N-(3-{[5-methoxy-2-(2-methoxyethyl)phenyl]amino}quinoxalin-2-yl)piperidine-4-sulfonamide] | 300 nM
27 | COc1ccc(CCCO)c(Nc2nc3ccccc3nc2NS(=O)(=O)C2CCN(C(=O)OCc3ccccc3)CC2)c1 [Example 66, Benzyl 4-{[(3-{[2-(3-hydroxypropyl)-5-methoxyphenyl]amino}quinoxalin-2-yl)amino]sulfonyl}piperidine-1-carboxylate] | 720 nM
28 | COc1ccc(CCS(C)(=O)=O)c(Nc2nc3ccccc3nc2NS(=O)(=O)CCCSC)c1 [Example 57, N-[3-({5-Methoxy-2-[2-(methylsulfonyl)ethyl]phenyl}amino)quinoxalin-2-yl]-3-(methylthio)propane-1-sulfonamide] | 140 nM
29 | COC(=O)c1ccc(OC)cc1Nc1nc2ccccc2nc1NS(C)(=O)=O [Example 3, methyl 4-methoxy-2-({3-[(methylsulfonyl)amino]quinoxalin-2-yl}amino)benzoate] | 1650 nM
30 | COc1cc(CN2CCN(C)CC2)cc(Nc2nc3ccccc3nc2NS(=O)(=O)c2cccnc2)c1 [Example 92, N-[3-({3-methoxy-5-[(4-methylpiperazin-1-yl)methyl]phenyl}amino)quinoxalin-2-yl]pyridine-3-sulfonamide] | 970 nM
31 | COc1ccc(CCO)c(Nc2nc3ccccc3nc2NS(=O)(=O)CCCSC)c1 [Example 58, N-(3-{[2-(2-Hydroxyethyl)-5-methoxyphenyl]amino}quinoxalin-2-yl)-3-(methylthio)propane-1-sulfonamide] | 75 nM
32 | COc1ccc(CN2CCN(C)CC2)c(Nc2nc3ccccc3nc2NS(=O)(=O)c2ccc(F)cc2)c1 [Example 82, 4-fluoro-N-[3-({5-methoxy-2-[(4-methylpiperazin-1-yl)methyl]phenyl}amino)quinoxalin-2-yl]benzenesulfonamide] | 110 nM
33 | COc1ccc(CCO)c(Nc2nc3ccccc3nc2NS(=O)(=O)c2ccc(C#N)cc2)c1 [Example 34] | 22 nM
